“Also recorded” adds a separate entry of the source. Blank lines part the entries; values can stand above or below the compound they belong to.
Tests used:
[1] = test system: bovine choroidal microvascular endothelial cells (BCEC); assay: BCEC proliferation assay; format: cell-based; settings: for stimulation of BCEC proliferation by structurally related molecules: with or without VEGF, 0.04 μM-5 mM; for block of ManN effects on BCEC proliferation by monosaccharides: monosaccharide at maximum 1:10 molar ratio, added after 2 hours ManN; for stimulatory effect of hexosamines on BCEC proliferation: tested alongside ManN, FIG. 1D
Protocol: Proliferation assays with BCECs and BRECs were performed. Log-phase growing BCECs or BRECs (passage <10) were trypsinized, re-suspended and seeded in 96-well plates (no coating) in low-glucose DMEM supplemented with 10% bovine calf serum, 2 mM glutamine, and antibiotics (growth medium), at a density of 1200-1500 cells per well in 200 μl volume. All reagents were added at the indicated final concentrations. […] Fluorescence was measured at 530 nm excitation wavelength and 590 nm emission wavelength. The experiments were repeated at least three times. […] On each 96-well plate, untreated and VEGF-treated (10/ng/ml) wells were included to monitor plate-to-plate variations. 20% methanol or 0.05% DMSO served as negative controls. 0.05% DMSO served as negative controls when Cas was tested in these cells. Human […] and human adult […] were split into Gelatin-coated 96 wells (2000 cells per well) in low glucose DMEM containing 10% FBS. 1200 cells/well was set up for proliferation assay in low glucose media containing FBS. […] HUVEC (p7-10) were grown on gelatin-coated plate until it reached 70-80% confluency. On the day of the assay, cells were dissociated with 0.05% trypsin, which was neutralized with 0.5% FBS-containing EBM. Cells were briefly spun and then re-suspended in 0.5% FBS-media. Cells were counted and plated in 96-well, 1000 cells/well. Triplicate wells were used for each treatment. Data were collected at day 3, and then cells were fixed in 4% paraformaldehyde for 15 min before adding crystal violet. Cell-covered areas were quantified after taking pictures by Image J software.

[2] = test system: ERK, AKT, mTOR, CREB, ACC and eNOS; assay: Western blot of signal transduction pathways in BCECs; format: cell-based, bovine
Protocol: (§1) Cells were allowed to reach ˜80% confluency in 12-well plates. […] At various time points, plates were taken out of the incubator and kept on ice. Cell monolayers were first washed once with ice-cold PBS before lysis with 250 μl of Pierce RIPA buffer (ThermoFisher Scientific, Rockford, IL) or use 50 mM Tris-HCl (pH 7.6), 150 mM NaCl, 10% Glycerol, 1% NP-40 containing protease/Phosphatase inhibitor cocktail (100×) (Cell signaling, #5872). Lysates were collected and mixed with 4×Bolt LDS Sample Buffer (Novex, Carlsbad, CA) in the presence of Halt protease inhibitors and phosphatase inhibitor cocktail (ThermoFisher scientific, #NP0007). The samples were subjected to SDS-PAGE (Bolt 4-12% Bis-Tris Plus, Invitrogen) using Bolt MES SDS running buffer or NuPAGE 3-8% Tris-Acetate gel using Tris-Acetate SDS running buffer (Novex). HUVECs (passage 6-8) were plated in EBM-2 basal medium (Lonza) with 0.2% FBS. […] Equal amounts of protein lysates were analyzed by SDS-PAGE and blotted with the indicated antibodies. Proteins were transferred using Tris-Glycine buffer with 20% Methanol (Proteonomics grade) (Apex BioResearch Products). Membranes were first incubated with 5% milk in TBST, pH 7.6 (TEKnova, Hollister, CA), followed by blotting with primary and secondary antibodies. ECL anti-rabbit IgG, horseradish peroxidase linked whole antibody from donkey or sheep anti-mouse were obtained from GE Healthcare (UK limited). SuperSignal West Dura Extended Duration substrate was from ThermoFisher Scientific. In some cases, the same PVDF membranes were stripped by 8-min incubation in the Restore Plus Western Blot Stripping Buffer (ThermoFisher Scientific) to show total specific protein expression, followed by second stripping for β-actin expression.

Bip, CHOP and ATF-6 = assay: Western blot of UPR responsive proteins in BCECs; format: cell-based, bovine; settings: for prevention of CHOP induction by ManN: 2 mM 4-PBA or 500 uM TUDCA, ManN at 400 uM and 5 mM; for restoration of ATF-6 expression: ManN at 400 uM
Protocol: as §1

[3] = mouse, in vivo, po
[4] = test system: BCEC confluent monolayers; assay: BCEC scratch assay; format: cell-based, bovine; settings: over 48 hours relative to control
Protocol: BCECs (passage 6-10) and HUVEC (passage 6-8) were used in this assay. Cells were grown until about 80% confluency in 6-well plates, washed twice with PBS and then starved in serum-free DMEM (low Glucose, Hyclone) for 5 hrs before making a “scratch” using 1 ml tip. Cell monolayers were briefly washed once with serum-free media, followed by various treatments in media containing 1% FBS. 48 hrs later, the assay was stopped by adding 2 ml 4% paraformaldehyde. 20 min later, fixed cells were stained with 1 ml Crystal Violet (Sigma). Plates were washed gently under the running tap water and air-dried before taking pictures. Images were acquired by ZEISS Discovery […] microscopy equipped with […] camera. Quantification of wound closure was done using AxioVision LE Rel.4.4 software. Six images were taken for each sample and six measurements (in pixel) were made on each image using AxioVision LE Rel.4.4 software.

ERK and AKT = assay: Western blot of ERK and AKT activation in HUVEC and hDMVECs; format: cell-based, human; settings: hDMVECs
Protocol: as §1, with “80%” for “˜80%”, “ECL anti-rabbit IgG, horseradish peroxidase linked whole antibody from donkey or sheep anti-mouse were obtained from GE Healthcare (UK limited). SuperSignal West Dura Extended Duration substrate was from ThermoFisher Scientific. In some cases, the same PVDF membranes were stripped by 8-min incubation in the Restore Plus Western Blot Stripping Buffer (ThermoFisher Scientific) to show total specific protein expression, followed by second stripping for β-actin expression.” left out

JNK/c-Jun = assay: Western blot of JNK pathway activation in BCECs; format: cell-based, bovine; settings: media without growth factors
Protocol: as §1, with “80%” for “˜80%”

VEGFR2 = assay: Western blot of VEGFR2 molecular mass in BCECs and BRECs; format: cell-based, bovine; settings: 24 hours; SDS-PAGE
Protocol: Glycerol-free PNGase F was obtained from New England Biolabs (Ipswich, MA). Briefly, BCECs were lysed with NP-40 containing proteinase inhibitors (Thermo Scientific, Waltham, MA). Lysates were cleared at 4° C. at 5000 g for 25 mins. Total protein content was measured using Pierce BCA protein assay kit (ThermoScientific). […] of protein was mixed with 10× denaturing buffer and H2O to a total volume of […]. Glycoproteins were denatured at 100° C. for 10 mins, followed by adding Glycobuffer and PNGase F. The reaction was carried out at 37° C. for 2 hr.
as §1

retinal vasculature = assay: Retinal neovascularization after intravitreal injection; format: in vivo, mouse; settings: intravitreal 500 ng ManN or Kif, 200 ng bFGF; seven days
Protocol: Assessment of retinal angiogenesis following intravitreal administration was done. Briefly, 6-8 weeks old C57BL/6 male mice were randomly allocated to different groups and anesthetized with ketamine/Xylazine cocktail. The indicated amounts of ManN, Kif or bFGF (R&D systems, AF-233-NA) in 1 μl of PBS and PBS vehicle control were injected intravitreally with a 33-gauge Hamilton syringe. Seven days after injection, animals were euthanized. Eyes were then enucleated and fixed in 4% paraformaldehyde (PFA) for 30 mins. Retinas were separated and stained with anti-CD31 immunofluorescence (IF) to evidence the vasculature. Evaluations were performed by an investigator blinded to the treatment. For CD31 IF, rat anti-mouse antibody (BD Biosciences, CAT #550274) was diluted 1:100 and incubated overnight at 4° C. After 4-hour incubation with the Alexa Fluor-488-conjugated anti-rat antibody (Life Technologies, A11006), whole mounts were imaged via the 488 nm channel using A1R Confocal STORM super-resolution system (Nikon). Quantification of vascular density in choroids and retina was carried out by Image J. Each experiment was repeated three times with similar results, and each treatment group consists of 5 individual samples.

Compound: CC(=O)N[C@H]1[C@H]([C@H](O)[C@H](O)CO)OC(O)(C(=O)O)C[C@@H]1O (stereo partly drawn) [N-Acetyl-neuraminic acid, N-Acetylneuraminic acid]
stimulation of BCEC proliferation by structurally related molecules [1]: None of these molecules stimulated BCEC proliferation

Compound: C[C@@H](O[C@H]1[C@H](O)[C@@H](CO)OC(O)[C@@H]1N)C(=O)O (stereo partly drawn) [muramic acid, Muramic acid]
stimulation of BCEC proliferation by structurally related molecules [1]: None of these molecules stimulated BCEC proliferation

Compound: CC(=O)N[C@@H]1C(O)O[C@H](CO)[C@@H](O)[C@@H]1O (stereo partly drawn) [ManNAc, N-acetyl-Mannosamine, reference compound]
activation of ERK, AKT, mTOR, CREB, ACC and eNOS by other agents ([2]; 40 μM, compared with ManN): induced a similar activation

Compound: Cl.NCC(=O)[C@@H](O)[C@H](O)[C@H](O)CO [D-isoglucosamine, 1-Amino-1-deoxy-D-Fructose hydrochloride]
stimulation of BCEC proliferation by structurally related molecules [1]: None of these molecules stimulated BCEC proliferation

Compound: C[C@H](O)[C@@H](O)[C@@H](O)[C@H](O)C=O [fucose, reference compound]
block of ManN effects on BCEC proliferation by monosaccharides [1]: not

Compound: O=C[C@H](O)[C@@H](O)[C@@H](O)[C@H](O)CO [galactose, reference compound]
block of ManN effects on BCEC proliferation by monosaccharides [1]: not

Compound: N[C@H]1C(O)O[C@H](CO)[C@H](O)[C@@H]1O (stereo partly drawn) [galactosamine, D-(+)-Galactosamine]
stimulatory effect of hexosamines on BCEC proliferation [1]: none of these hexosamines had significant stimulatory effects

Compound: C[C@H](CCC(=O)NCCS(=O)(=O)O)[C@H]1CC[C@H]2[C@@H]3[C@@H](O)C[C@@H]4C[C@H](O)CC[C@]4(C)[C@H]3CC[C@]12C [TUDCA, tauroursodeoxycholic acid]
prevention of CHOP induction by ManN (Bip, CHOP and ATF-6): not
restoration of ATF-6 expression (Bip, CHOP and ATF-6): much weaker

Compound: CNC[C@H](O)[C@@H](O)[C@H](O)[C@H](O)CO [meglumine, Meglumine]
stimulation of BCEC proliferation by structurally related molecules [1]: None of these molecules stimulated BCEC proliferation

ManN-6p in ischemic leg muscle [3]: 0.91+/−0.24 nmol/mg protein
Compound: N[C@@H]1C(O)O[C@H](COP(=O)(O)O)[C@@H](O)[C@@H]1O (stereo partly drawn) [ManN-6p, ManN-6-phosphate]

Compound: O[C@H]1[C@H](O)[C@@H](O)CN2CC[C@H](O)[C@H]12 [Cas, Castanospermine, reference compound]
BCEC proliferation with N-glycosylation inhibitors ([1]; absence or presence of 5 ng/ml VEGF): stimulated in a dose-dependent fashion
activity of glycosylation inhibitors in BCEC scratch assay [4]: significant activity
activation of ERK ([2]; 40 uM, BCECs): less obvious; also recorded: did not activate ERK
activation of ERK (ERK and AKT): less obvious
activation of JNK pathway (JNK and downstream c-Jun) (JNK/c-Jun): able to activate the JNK pathway
VEGFR2 molecular mass after glycosylation inhibitor treatment (VEGFR2): reduction in VEGFR2 molecular mass
Bip expression with glycosylation inhibitors (Bip, CHOP and ATF-6; media without growth factors for 24 hours): dose-dependent induction of Bip expression

Compound: O=C(O)CCCc1ccccc1 [4-PBA, 4-phenylbutyric acid]
additivity between ManN and VEGF after chemical chaperon pre-treatment ([1]; 1 mM 4-PBA): largely abolished
reversal of bell-shaped activity of ManN on BCEC proliferation by chemical chaperon ([1]; pre-treating with 1 mM 4-PBA for 4 hours, absence or presence of VEGF): effectively reverse the bell-shaped activity of ManN
prevention of CHOP induction by ManN (Bip, CHOP and ATF-6): prevent the induction of CHOP expression
restoration of ATF-6 expression (Bip, CHOP and ATF-6): restore the expression of ATF-6

Compound: N[C@H]1C(O)O[C@H](CO)[C@@H](O)[C@@H]1O (stereo partly drawn) [glucosamine, D-(+)-Glucosamine]
stimulatory effect of hexosamines on BCEC proliferation [1]: none of these hexosamines had significant stimulatory effects

Compound: bFGF: bFGF growth factor purchased from R&D systems, positive control
increase in density of retinal vessels compared to PBS group (retinal vasculature): about 35%

From patent US20230390315A1, “COMPOSITIONS AND METHODS FOR TREATING ISCHEMIC CONDITIONS” (The Regents of the University of California, priority 2020, published 2023)
